What follows are compounds tested against MTH1 (Homo sapiens, UniProt P36639) (assay: MTH1 enzymatic assay (malachite green, coupled to pyrophosphatase)). Conditions: dGTP 100 μM, MTH1 6 nM; 96- or 384-well format; read-out: IC50.
Type: biochemical

| SMILES | IC50 |
| --- | --- |
| Cc1ccc(NCCNc2cc(-c3cccc(C)c3C)nc(N)n2)cc1F [Example 448, 6-(2,3-dimethylphenyl)-4-N-{2-[(3-fluoro-4-methylphenyl)amino]ethyl}pyrimidine-2,4-diamine] | < 200 nM |
| Cc1cccc(-c2cc(NCCNc3ccc(S(N)(=O)=O)cc3)nc(N)n2)c1C [Example 452, 4-[(2-{[2-amino-6-(2,3-dimethylphenyl)pyrimidin-4-yl]amino}ethyl)amino]benzene-1-sulfonamide] | < 200 nM |
| Cc1c(Cl)cccc1-c1cc(NCCc2ccc(Cl)cc2)nc(N)n1 [Example 461, 6-(3-chloro-2-methylphenyl)-4-N-[2-(4-chlorophenyl)ethyl]pyrimidine-2,4-diamine] | < 200 nM |
| CNc1cc(-c2ccsc2)nc(N)n1 [Example 463, 4-N-methyl-6-(thiophen-3-yl)pyrimidine-2,4-diamine] | < 200 nM |
| CNc1cc(-c2cc(C)cs2)nc(N)n1 [Example 464, 4-N-methyl-6-(4-methylthiophen-2-yl)pyrimidine-2,4-diamine] | < 200 nM |
| CNc1cc(-c2ccnn2C)nc(N)n1 [Example 465, 4-N-methyl-6-(1-methyl-1H-pyrazol-5-yl)pyrimidine-2,4-diamine] | < 200 nM |
| CS(=O)(=O)c1ccc(C(=O)NCCCCNc2cc(-c3cccc(Cl)c3Cl)nc(N)n2)cc1 [Example 471, N-(4-{[2-amino-6-(2,3-dichlorophenyl)pyrimidin-4-yl]amino}butyl)-4-methanesulfonylbenzamide] | < 200 nM |
| Nc1nc(NCCCCNC(=O)c2ccno2)cc(-c2cccc(Cl)c2Cl)n1 [Example 472, N-(4-{[2-amino-6-(2,3-dichlorophenyl)pyrimidin-4-yl]amino}butyl)-1,2-oxazole-5-carboxamide] | < 200 nM |
| Nc1nc(NCCCCNC(=O)c2ccc(Cl)c(Cl)c2)cc(-c2cccc(Cl)c2Cl)n1 [Example 473, N-(4-{[2-amino-6-(2,3-dichlorophenyl)pyrimidin-4-yl]amino}butyl)-3,4-dichlorobenzamide] | < 200 nM |
| CC(C)(C)C(=O)NCCCCNc1cc(-c2cccc(Cl)c2Cl)nc(N)n1 [Example 474, N-(4-{[2-amino-6-(2,3-dichlorophenyl)pyrimidin-4-yl]amino}butyl)-2,2-dimethylpropanamide] | < 200 nM |
| CNc1cc(-c2ccoc2C)nc(N)n1 [Example 478, 4-N-methyl-6-(2-methylfuran-3-yl)pyrimidine-2,4-diamine] | < 200 nM |
| CNc1cc(-c2ccc(CN3CCCC3)s2)nc(N)n1 [Example 479, 4-N-methyl-6-[5-(pyrrolidin-1-ylmethyl)thiophen-2-yl]pyrimidine-2,4-diamine] | < 200 nM |
| Nc1nc(NCCc2ccc(Cl)cc2)cc(-c2ccccc2CO)n1 [Example 481, [2-(2-amino-6-{[2-(4-chlorophenyl)ethyl]amino}pyrimidin-4-yl)phenyl]methanol] | < 200 nM |
| Cc1c(Cl)cccc1-c1cc(NC2CC2)nc(N)n1 [Example 482, 6-(3-chloro-2-methylphenyl)-4-N-cyclopropylpyrimidine-2,4-diamine] | < 200 nM |
| Cc1cccc(-c2cc(NCCF)nc(N)n2)c1C [Example 484, 6-(2,3-dimethylphenyl)-4-N-(2-fluoroethyl)pyrimidine-2,4-diamine] | < 200 nM |
| CNc1cc(-c2cnn(CCC(N)=O)c2)nc(N)n1 [Example 487, 3-{4-[2-amino-6-(methylamino)pyrimidin-4-yl]-1H-pyrazol-1-yl}propanamide] | < 200 nM |
| COc1cc(C)c(NCCNc2cc(-c3cccc(C)c3C)nc(N)n2)cn1 [Example 490, 6-(2,3-dimethylphenyl)-4-N-{2-[(6-methoxy-4-methylpyridin-3-yl)amino]ethyl}pyrimidine-2,4-diamine] | < 200 nM |
| Cc1cccc(-c2cc(NCCNc3cnccn3)nc(N)n2)c1C [Example 500, 6-(2,3-dimethylphenyl)-4-N-{2-[(pyrazin-2-yl)amino]ethyl}pyrimidine-2,4-diamine] | < 200 nM |
| Nc1nc(NCCc2ccc(S(N)(=O)=O)cc2)cc(-c2ccccc2CO)n1 [Example 509, 4-[2-({2-amino-6-[2-(hydroxymethyl)phenyl]pyrimidin-4-yl}amino)ethyl]benzene-1-sulfonamide] | < 200 nM |
| Cc1c(NC(=O)c2ccc(Cl)cc2O)cccc1-c1cc(NCCc2ccc(S(C)(=O)=O)cc2)nc(N)n1 [Example 516, N-[3-(2-amino-6-{[2-(4-methanesulfonylphenyl)ethyl]amino}pyrimidin-4-yl)-2-methylphenyl]-4-chloro-2-hydroxybenzamide] | < 200 nM |
| Cc1cccc(-c2cc(NCCc3c[nH]c4ccc(O)cc34)nc(N)n2)c1C [Example 517, 3-(2-{[2-amino-6-(2,3-dimethylphenyl)pyrimidin-4-yl]amino}ethyl)-1H-indol-5-ol] | < 200 nM |
| Cc1cccc(-c2cc(NCCc3c[nH]c4ccc(OCc5ccccc5)cc34)nc(N)n2)c1C [Example 518, 4-N-{2-[5-(benzyloxy)-1H-indol-3-yl]ethyl}-6-(2,3-dimethylphenyl)pyrimidine-2,4-diamine] | < 200 nM |
| Cc1cccc(-c2cc(NCCc3c[nH]c4ccc(Br)cc34)nc(N)n2)c1C [Example 519, 4-N-[2-(5-bromo-1H-indol-3-yl)ethyl]-6-(2,3-dimethylphenyl)pyrimidine-2,4-diamine] | < 200 nM |
| COc1ccc2[nH]cc(CCNc3cc(-c4cccc(C)c4C)nc(N)n3)c2c1 [Example 520, 6-(2,3-dimethylphenyl)-4-N-[2-(5-methoxy-1H-indol-3-yl)ethyl]pyrimidine-2,4-diamine] | < 200 nM |
| Cc1cccc(-c2cc(NCCc3c[nH]c4c(C)cccc34)nc(N)n2)c1C [Example 521, 6-(2,3-dimethylphenyl)-4-N-[2-(7-methyl-1H-indol-3-yl)ethyl]pyrimidine-2,4-diamine] | < 200 nM |
| COc1ccc2c(CCNc3cc(-c4cccc(C)c4C)nc(N)n3)c[nH]c2c1 [Example 523, 6-(2,3-dimethylphenyl)-4-N-[2-(6-methoxy-1H-indol-3-yl)ethyl]pyrimidine-2,4-diamine] | < 200 nM |
| CC1CC1Nc1cc(-c2cccc(Cl)c2Cl)nc(N)n1 (stereo not shown) [Example 524, 6-(2,3-dichlorophenyl)-4-N-(2-methylcyclopropyl)pyrimidine-2,4-diamine] | < 200 nM |
| Cc1cccc(-c2cc(NCCNc3ccc(-c4nnn[nH]4)cc3)nc(N)n2)c1C [Example 543, 6-(2,3-dimethylphenyl)-4-N-(2-{[4-(1H-1,2,3,4-tetrazol-5-yl)phenyl]amino}ethyl)pyrimidine-2,4-diamine] | < 200 nM |
| Nc1nc(NCCc2ccc(S(N)(=O)=O)cc2)cc(C2=CCN(S(=O)(=O)C3CC3)CC2)n1 [Example 555, 4-[2-({2-amino-6-[1-(cyclopropanesulfonyl)-1,2,3,6-tetrahydropyridin-4-yl]pyrimidin-4-yl}amino)ethyl]benzene-1-sulfonamide] | < 200 nM |

Next, values leading:

| IC50 | SMILES |
| --- | --- |
| < 200 nM | Cc1cccc(-c2cc(NCCNc3ccc(Cl)c(Cl)c3)nc(N)n2)c1C [Example 449, 4-N-{2-[(3,4-dichlorophenyl)amino]ethyl}-6-(2,3-dimethylphenyl)pyrimidine-2,4-diamine] |
| < 200 nM | Cc1cccc(-c2cc(NCCNc3ccc(Cl)cn3)nc(N)n2)c1C [Example 450, 4-N-{2-[(5-chloropyridin-2-yl)amino]ethyl}-6-(2,3-dimethylphenyl)pyrimidine-2,4-diamine] |
| < 200 nM | Nc1nc(NCCNc2ccc(Br)cn2)cc(-c2cccc(Cl)c2Cl)n1 [Example 466, 4-N-{2-[(5-bromopyridin-2-yl)amino]ethyl}-6-(2,3-dichlorophenyl)pyrimidine-2,4-diamine] |
| < 200 nM | CNc1cc(-c2cc[nH]c2)nc(N)n1 [Example 468, 4-N-methyl-6-(1H-pyrrol-3-yl)pyrimidine-2,4-diamine] |
| < 200 nM | COCC(=O)NCCCCNc1cc(-c2cccc(Cl)c2Cl)nc(N)n1 [Example 469, N-(4-{[2-amino-6-(2,3-dichlorophenyl)pyrimidin-4-yl]amino}butyl)-2-methoxyacetamide] |
| < 200 nM | Nc1nc(NCCCCNC(=O)C(F)(F)F)cc(-c2cccc(Cl)c2Cl)n1 [Example 470, N-(4-{[2-amino-6-(2,3-dichlorophenyl)pyrimidin-4-yl]amino}butyl)-2,2,2-trifluoroacetamide] |
| < 200 nM | CS(=O)(=O)c1ccc(S(=O)(=O)NCCCCNc2cc(-c3cccc(Cl)c3Cl)nc(N)n2)cc1 [Example 475, N-(4-{[2-amino-6-(2,3-dichlorophenyl)pyrimidin-4-yl]amino}butyl)-4-methanesulfonylbenzene-1-sulfonamide] |
| < 200 nM | Cc1c(Cl)cccc1-c1cc(NCCF)nc(N)n1 [Example 483, 6-(3-chloro-2-methylphenyl)-4-N-(2-fluoroethyl)pyrimidine-2,4-diamine] |
| < 200 nM | NC(=O)COc1cccc(-c2cc(NCCc3ccc(Cl)cc3)nc(N)n2)c1 [Example 498, 2-[3-(2-amino-6-{[2-(4-chlorophenyl)ethyl]amino}pyrimidin-4-yl)phenoxy]acetamide] |
| < 200 nM | Cc1cccc(-c2cc(NCCNc3cc(Cl)ncn3)nc(N)n2)c1C [Example 501, 4-N-{2-[(6-chloropyrimidin-4-yl)amino]ethyl}-6-(2,3-dimethylphenyl)pyrimidine-2,4-diamine] |
| < 200 nM | CNc1cc(-c2ccccc2CO)nc(N)n1 [Example 508, {2-[2-amino-6-(methylamino)pyrimidin-4-yl]phenyl}methanol] |
| < 200 nM | Cc1cccc(-c2cc(NCCNc3cc(C(N)=O)ccn3)nc(N)n2)c1C [Example 514, 2-[(2-{[2-amino-6-(2,3-dimethylphenyl)pyrimidin-4-yl]amino}ethyl)amino]pyridine-4-carboxamide] |
| < 200 nM | Cc1cccc(-c2cc(NCCc3c[nH]c4c(OCc5ccccc5)cccc34)nc(N)n2)c1C [Example 522, 4-N-{2-[7-(benzyloxy)-1H-indol-3-yl]ethyl}-6-(2,3-dimethylphenyl)pyrimidine-2,4-diamine] |
| < 200 nM | COc1ccc(NCCNc2cc(-c3cccc(C)c3C)nc(N)n2)cc1S(=O)(=O)O [Example 545, 5-[(2-{[2-amino-6-(2,3-dimethylphenyl)pyrimidin-4-yl]amino}ethyl)amino]-2-methoxybenzene-1-sulfonic Acid] |
